Values quoted from earlier work in patent US5013557A, “Taste masking compositions comprising spray dried microcapsules containing sucralfate and methods for preparing same” (Warner-Lambert Company, priority 1989, dated 1991).

Columns and labels:
EGF = details: in vivo
[1] = pH values below about 3.5
pepsin = details: gel-like mass at ulcer site
peptic ulcers = details: in vivo
[2] = sulfated disaccharide

In the case of “alpha-D-glucopyranoside, beta-D-fructofuranosyl-, octakis-(hydrogen sulfate), aluminum complex [sucralfate]”, the “Morphological and functional changes in the mucosa” value (mucosa) is given as “mucus release, changes in ion transport and increased release and synthesis of prostaglandins”, the “EGF remaining in the stomach” value (EGF) is given as “enable EGF to remain in the stomach at a high concentration” and the “Affinity for ulcerated mucosa versus non-ulcerated mucosa” value (ulcerated mucosa) is given as “greater affinity for ulcerated mucosa than for non-ulcerated mucosa”. The “Effect of barrier on back diffusion of gastric acid” value (across the sucralfate protein barrier) was “blocks back diffusion of gastric acid”, the “Effect of barrier on diffusion of hydrogen ions” value (protein barrier bound to ulcer site) was “blocks diffusion of hydrogen ions” and the “Coagulation / gel formation” value [1] was “coagulates to form a gel-like mass”. For the same substance, the “Effect of protein barrier on bile salts and pepsin” value (pepsin) was “adsorbs bile salts and inhibits the potential ulcerogenic properties of pepsin”, the “Healing of peptic ulcers” value (peptic ulcers) was “accelerates the healing of peptic ulcers” and the “Absorption from the gastrointestinal tract” value [2] was “not absorbed from the gastrointestinal tract”.
